US20260297085A1, “1 H-PYRROLO[2,3-B]PYRIDIN-4-YL]-2-OXOPYRROLIDINE-3-CARBONITRILE DERIVATIVES AS TYROSINE KINASE 2 (TYK2) INHIBITORS FOR THE TREATMENT OF INFLAMMATORY DISEASES” (BIOGEN MA INC., priority 2023, published 2026)
Where a name gives a salt, the structure may show the parent alone.

Assays:
[1] = target: T1, human TYK2 kinase domain (JH1) (Homo sapiens, UniProt P29597); experiment: JH1 biochemical assay for TYK2 (ADP-Glo kinase assay, recombinant JH1 catalytic domain, JAK3-974 peptide, 10 μM ATP); conditions: TYK2 JH1, ADP-Glo
T1 construct: recombinantly generated catalytic kinase (also known as JH1) domain of human JAK1, JAK2, JAK3 and TYK2
T1 sequence (P29597 897-1176 limits assumed): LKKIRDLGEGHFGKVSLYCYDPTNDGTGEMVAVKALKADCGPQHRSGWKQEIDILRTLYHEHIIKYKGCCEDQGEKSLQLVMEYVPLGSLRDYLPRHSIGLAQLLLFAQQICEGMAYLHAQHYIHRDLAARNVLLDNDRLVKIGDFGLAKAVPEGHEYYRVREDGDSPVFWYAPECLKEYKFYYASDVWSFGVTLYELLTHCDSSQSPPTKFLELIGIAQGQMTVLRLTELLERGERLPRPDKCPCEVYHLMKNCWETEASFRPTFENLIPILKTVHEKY
Procedure, shortened: (§1)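 Reactions contain 50 μM peptide and run 100 minutes, with enzyme at 4, 0.2, 0.3 and 2 nM for JAK1, JAK2, JAK3 and TYK2. Generated ADP is read by luminescence; IC50 derives from normalized dose-response curves.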

[2] = target: JAK2 kinase activity on STAT5 in TF1 cells (Homo sapiens, UniProt O60674); experiment: pSTAT5 cell assay (MSD; TF1 cells, 30 ng/mL IL-3 stimulation); assay type: cell-based; conditions: 30 ng/mL IL-3, 15 minutes
Procedure, shortened: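 IC50 from a 4-parameter logistic fit of normalized pSTAT5 signal, measured by MSD in lysates of TF1 cells. Cells were serum-starved, exposed to compound for 1 h (top concentration 10 μM, four-fold, 10 points), then given IL-3 at 30 ng/mL for 15 min.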

[3] = target: Tyk2 kinase activity on STAT4 in NK92 cells (Homo sapiens, UniProt P29597); experiment: pSTAT4 cell assay (MSD; NK92 cells, 30 ng/mL IL2 stimulation); assay type: cell-based; conditions: 30 ng/mL IL2, 15 minutes
Procedure, shortened: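 IC50 values come from 4-parameter logistic fits of normalized percent activity. Phospho-STAT was read by MSD (anti-STAT4 antibodies) in NK92 lysates after a 15 min stimulation with 30 ng/mL IL2. The serum-starved cells had been given compound for 1 h (10 points, four-fold, top 10 μM).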

[4] = target: JAK1 kinase activity on STAT3 in TF1 cells (Homo sapiens, UniProt P23458); experiment: pSTAT3 cell assay (MSD; TF1 cells, 30 ng/mL IL-6 stimulation); assay type: cell-based; conditions: 30 ng/mL IL-6, 15 minutes
Procedure, shortened: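 IC50 values derive from 4-parameter logistic fits of normalized pSTAT3 signal, measured by MSD with anti-STAT3 antibodies. TF1 cells, serum-starved beforehand, received compound for 1 hour (top concentration 10 μM, four-fold steps, 10 points) before a 15-minute IL-6 (30 ng/mL) stimulus.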

[5] = target: T2, human JAK1 kinase domain (JH1) (Homo sapiens, UniProt P23458); experiment: JH1 biochemical assay for JAK1 (ADP-Glo kinase assay, recombinant JH1 catalytic domain, JAK3-342 peptide, 35 μM ATP); conditions: JAK1 JH1, ADP-Glo
T2 construct: recombinantly generated catalytic kinase (also known as JH1) domain of human JAK1, JAK2, JAK3 and TYK2
Procedure, shortened: as §1

[6] = target: T3, human JAK3 kinase domain (JH1) (Homo sapiens, UniProt P52333); experiment: JH1 biochemical assay for JAK3 (ADP-Glo kinase assay, recombinant JH1 catalytic domain, JAK3-974 peptide, 4 μM ATP); conditions: JAK3 JH1, ADP-Glo
T3 construct: recombinantly generated catalytic kinase (also known as JH1) domain of human JAK1, JAK2, JAK3 and TYK2
Procedure, shortened: as §1

[7] = target: T4, human JAK2 kinase domain (JH1) (Homo sapiens, UniProt O60674); experiment: JH1 biochemical assay for JAK2 (ADP-Glo kinase assay, recombinant JH1 catalytic domain, JAK3-974 peptide, 15 μM ATP); conditions: JAK2 JH1, ADP-Glo
T4 construct: recombinantly generated catalytic kinase (also known as JH1) domain of human JAK1, JAK2, JAK3 and TYK2
Procedure, shortened: as §1

T4 sequence (O60674 849-1124 limits assumed): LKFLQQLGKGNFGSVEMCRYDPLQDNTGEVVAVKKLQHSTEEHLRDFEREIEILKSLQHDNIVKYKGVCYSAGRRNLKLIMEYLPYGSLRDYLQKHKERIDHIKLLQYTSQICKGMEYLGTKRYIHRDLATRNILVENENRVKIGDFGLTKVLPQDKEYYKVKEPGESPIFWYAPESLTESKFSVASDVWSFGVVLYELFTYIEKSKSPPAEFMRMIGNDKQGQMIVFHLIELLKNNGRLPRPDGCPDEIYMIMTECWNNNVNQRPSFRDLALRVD
Sequence of Tyk2 kinase activity on STAT4 in NK92 cells (P29597 whole entry): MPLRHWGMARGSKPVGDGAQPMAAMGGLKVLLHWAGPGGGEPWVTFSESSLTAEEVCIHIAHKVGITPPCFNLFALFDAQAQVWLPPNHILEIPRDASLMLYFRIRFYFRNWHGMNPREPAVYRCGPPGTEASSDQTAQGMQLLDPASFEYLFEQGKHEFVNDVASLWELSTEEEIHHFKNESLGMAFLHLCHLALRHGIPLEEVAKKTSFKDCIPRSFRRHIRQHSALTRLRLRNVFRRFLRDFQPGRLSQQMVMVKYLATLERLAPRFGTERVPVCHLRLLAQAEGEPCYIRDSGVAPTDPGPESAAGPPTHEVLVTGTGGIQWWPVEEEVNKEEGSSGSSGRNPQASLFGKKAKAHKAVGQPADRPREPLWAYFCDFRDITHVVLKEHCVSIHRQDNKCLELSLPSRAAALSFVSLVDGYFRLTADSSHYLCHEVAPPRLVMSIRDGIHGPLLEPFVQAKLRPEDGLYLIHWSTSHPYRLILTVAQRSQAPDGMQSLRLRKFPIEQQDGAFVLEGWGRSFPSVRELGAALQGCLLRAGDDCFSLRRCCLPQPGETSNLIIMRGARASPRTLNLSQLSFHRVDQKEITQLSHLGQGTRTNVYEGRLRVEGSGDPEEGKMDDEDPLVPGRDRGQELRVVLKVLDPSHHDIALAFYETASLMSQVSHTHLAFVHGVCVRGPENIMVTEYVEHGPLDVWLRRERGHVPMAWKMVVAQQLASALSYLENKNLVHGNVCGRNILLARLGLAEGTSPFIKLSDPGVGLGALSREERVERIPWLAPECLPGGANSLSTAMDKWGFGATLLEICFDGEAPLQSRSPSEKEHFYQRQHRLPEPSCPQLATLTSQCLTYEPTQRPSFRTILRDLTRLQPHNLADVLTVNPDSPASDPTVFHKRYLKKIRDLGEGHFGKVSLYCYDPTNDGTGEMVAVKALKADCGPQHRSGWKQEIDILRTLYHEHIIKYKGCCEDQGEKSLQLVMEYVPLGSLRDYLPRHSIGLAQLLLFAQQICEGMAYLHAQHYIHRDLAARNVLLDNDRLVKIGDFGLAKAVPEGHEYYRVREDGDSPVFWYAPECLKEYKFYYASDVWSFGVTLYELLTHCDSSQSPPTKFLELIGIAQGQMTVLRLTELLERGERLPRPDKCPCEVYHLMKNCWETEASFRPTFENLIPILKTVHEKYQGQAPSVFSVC
T2 sequence (P23458 875-1153 limits assumed): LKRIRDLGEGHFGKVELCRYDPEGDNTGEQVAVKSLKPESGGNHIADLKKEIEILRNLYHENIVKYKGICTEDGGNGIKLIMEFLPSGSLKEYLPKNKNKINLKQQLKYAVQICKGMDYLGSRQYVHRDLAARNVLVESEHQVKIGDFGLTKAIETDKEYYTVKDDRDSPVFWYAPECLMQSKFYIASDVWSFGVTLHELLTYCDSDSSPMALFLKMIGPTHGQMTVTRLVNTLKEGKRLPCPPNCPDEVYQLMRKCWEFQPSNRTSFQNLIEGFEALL
Sequence of JAK2 kinase activity on STAT5 in TF1 cells (O60674 whole entry): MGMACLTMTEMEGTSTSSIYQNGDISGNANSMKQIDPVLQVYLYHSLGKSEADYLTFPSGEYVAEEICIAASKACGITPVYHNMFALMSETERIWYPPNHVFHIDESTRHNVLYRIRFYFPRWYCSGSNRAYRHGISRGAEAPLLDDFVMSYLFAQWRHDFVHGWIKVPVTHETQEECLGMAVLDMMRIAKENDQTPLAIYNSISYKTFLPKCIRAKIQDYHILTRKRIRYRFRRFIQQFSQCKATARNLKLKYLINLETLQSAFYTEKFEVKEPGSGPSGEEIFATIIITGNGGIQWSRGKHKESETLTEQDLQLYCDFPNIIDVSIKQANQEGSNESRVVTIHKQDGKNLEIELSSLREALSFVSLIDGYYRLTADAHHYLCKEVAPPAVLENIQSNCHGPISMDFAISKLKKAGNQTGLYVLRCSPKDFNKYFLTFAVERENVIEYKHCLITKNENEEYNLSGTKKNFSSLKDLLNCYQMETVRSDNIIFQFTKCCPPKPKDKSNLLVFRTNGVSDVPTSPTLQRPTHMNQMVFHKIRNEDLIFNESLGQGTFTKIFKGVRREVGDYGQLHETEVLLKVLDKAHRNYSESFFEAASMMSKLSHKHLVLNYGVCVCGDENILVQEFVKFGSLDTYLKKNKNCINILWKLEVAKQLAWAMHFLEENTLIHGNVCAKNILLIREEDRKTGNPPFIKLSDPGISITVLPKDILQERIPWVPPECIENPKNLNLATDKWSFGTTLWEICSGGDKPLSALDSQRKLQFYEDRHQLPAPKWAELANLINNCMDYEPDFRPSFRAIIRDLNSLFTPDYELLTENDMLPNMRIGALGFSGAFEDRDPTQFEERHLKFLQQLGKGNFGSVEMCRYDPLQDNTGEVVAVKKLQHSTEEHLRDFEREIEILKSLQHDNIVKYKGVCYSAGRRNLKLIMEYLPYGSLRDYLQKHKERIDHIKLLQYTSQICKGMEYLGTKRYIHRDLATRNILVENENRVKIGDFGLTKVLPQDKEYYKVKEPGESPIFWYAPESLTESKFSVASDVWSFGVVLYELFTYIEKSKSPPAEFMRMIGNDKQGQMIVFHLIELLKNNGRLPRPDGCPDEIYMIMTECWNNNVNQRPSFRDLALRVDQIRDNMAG
Sequence of JAK1 kinase activity on STAT3 in TF1 cells (P23458 whole entry): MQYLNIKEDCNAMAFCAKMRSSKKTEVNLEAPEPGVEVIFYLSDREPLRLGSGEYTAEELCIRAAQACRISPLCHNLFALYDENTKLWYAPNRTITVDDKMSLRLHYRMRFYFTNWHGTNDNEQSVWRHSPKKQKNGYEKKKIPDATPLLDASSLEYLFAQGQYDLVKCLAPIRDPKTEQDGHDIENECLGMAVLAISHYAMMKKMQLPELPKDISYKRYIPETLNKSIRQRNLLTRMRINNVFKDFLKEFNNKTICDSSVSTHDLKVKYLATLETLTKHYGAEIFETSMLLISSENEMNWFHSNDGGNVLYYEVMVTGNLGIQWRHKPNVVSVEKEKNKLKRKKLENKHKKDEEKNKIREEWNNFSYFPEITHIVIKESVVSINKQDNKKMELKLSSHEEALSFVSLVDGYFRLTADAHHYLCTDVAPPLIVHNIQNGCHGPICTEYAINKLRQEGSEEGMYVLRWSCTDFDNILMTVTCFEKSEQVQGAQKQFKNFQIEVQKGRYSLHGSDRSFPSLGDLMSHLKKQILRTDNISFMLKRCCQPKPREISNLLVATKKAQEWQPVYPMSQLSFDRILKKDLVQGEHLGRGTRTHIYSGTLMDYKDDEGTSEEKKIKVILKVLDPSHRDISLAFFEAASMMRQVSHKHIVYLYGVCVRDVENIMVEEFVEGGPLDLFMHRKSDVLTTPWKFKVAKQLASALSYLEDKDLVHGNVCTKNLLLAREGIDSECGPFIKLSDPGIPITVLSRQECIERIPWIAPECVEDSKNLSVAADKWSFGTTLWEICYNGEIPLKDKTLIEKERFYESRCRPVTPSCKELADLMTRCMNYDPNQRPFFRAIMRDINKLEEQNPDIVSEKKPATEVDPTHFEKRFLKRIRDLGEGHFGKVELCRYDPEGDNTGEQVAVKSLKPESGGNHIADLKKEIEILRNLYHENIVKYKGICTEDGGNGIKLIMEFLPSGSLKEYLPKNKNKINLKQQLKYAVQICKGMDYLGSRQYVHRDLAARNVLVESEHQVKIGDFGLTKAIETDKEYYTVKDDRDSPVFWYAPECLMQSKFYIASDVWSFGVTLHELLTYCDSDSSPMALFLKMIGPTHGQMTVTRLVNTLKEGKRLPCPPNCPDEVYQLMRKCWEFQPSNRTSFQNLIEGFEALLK
T3 sequence (P52333 822-1111 limits assumed): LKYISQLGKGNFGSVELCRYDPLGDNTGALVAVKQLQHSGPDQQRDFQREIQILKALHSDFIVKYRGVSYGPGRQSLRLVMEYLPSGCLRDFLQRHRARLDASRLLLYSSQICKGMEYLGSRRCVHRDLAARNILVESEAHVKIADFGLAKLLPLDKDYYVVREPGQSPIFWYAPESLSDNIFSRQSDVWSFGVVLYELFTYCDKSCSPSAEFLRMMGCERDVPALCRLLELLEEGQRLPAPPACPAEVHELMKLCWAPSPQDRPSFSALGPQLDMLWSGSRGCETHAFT

SMILES | IC50 [1] | IC50 [2] | IC50 [3] | IC50 [4] | IC50 [5] | IC50 [6] | IC50 [7]
Cc1c(-c2cn3ncc(F)c3c(N3C[C@@H](C)[C@@](C#N)(C4CC4)C3=O)n2)cnn1C [Example 221, (3R,4S)-3-cyclopropyl-1-(6-(1,5-dimethyl-1H-pyrazol-4-yl)-3-fluoropyrazolo[1,5-a]pyrazin-4-yl)-4-methyl-2-oxopyrrolidine-3-carbonitrile] | 5 to 20 nM | > 10000 nM | > 100 nM | 1000 to 5000 nM | 100 to 1000 nM | 100 to 1000 nM | 1000 to 5000 nM
C[C@@H]1CN(c2nc(-c3cc[nH]n3)cn3nccc23)C(=O)[C@]1(C#N)C1CC1 [Example 232, (3R,4S)-1-(6-(1H-pyrazol-3-yl)pyrazolo[1,5-a]pyrazin-4-yl)-3-cyclopropyl-4-methyl-2-oxopyrrolidine-3-carbonitrile trifluoroacetate] | 5 to 20 nM | > 10000 nM | > 100 nM | 1000 to 5000 nM | < 100 nM | 100 to 1000 nM | 100 to 1000 nM
Cc1ccc(-c2cn3nccc3c(N3C[C@@H](C)[C@@](C#N)(C4CC4)C3=O)n2)cn1 [Example 233, (3R,4S)-3-cyclopropyl-4-methyl-1-(6-(6-methylpyridin-3-yl)pyrazolo[1,5-a]pyrazin-4-yl)-2-oxopyrrolidine-3-carbonitrile trifluoroacetate] | < 5 nM | 1000 to 5000 nM | > 100 nM | 1000 to 5000 nM | < 100 nM | < 100 nM | 100 to 1000 nM
C[C@@H]1CN(c2nc(-c3ccnc(C(F)(F)F)c3)cn3nccc23)C(=O)[C@]1(C#N)C1CC1 [Example 234, (3R,4S)-3-cyclopropyl-4-methyl-2-oxo-1-(6-(2-(trifluoromethyl)pyridin-4-yl)pyrazolo[1,5-a]pyrazin-4-yl)pyrrolidine-3-carbonitrile trifluoroacetate] | 5 to 20 nM | > 10000 nM | > 100 nM | > 10000 nM | 100 to 1000 nM | 100 to 1000 nM | 100 to 1000 nM
C[C@@H]1CN(c2nc(-c3cnc4c(c3)OCC(=O)N4C)cn3nccc23)C(=O)[C@]1(C#N)C1CC1 [Example 235, (3R,4S)-3-cyclopropyl-4-methyl-1-(6-(4-methyl-3-oxo-3,4-dihydro-2H-pyrido[3,2-b][1,4]oxazin-7-yl)pyrazolo[1,5-a]pyrazin-4-yl)-2-oxopyrrolidine-3-carbonitrile trifluoroacetate] | < 5 nM | > 10000 nM | > 100 nM | > 10000 nM | < 100 nM | 100 to 1000 nM | 100 to 1000 nM
Cc1cncc(-c2cn3nccc3c(N3C[C@@H](C)[C@@](C#N)(C4CC4)C3=O)n2)c1 [Example 236, (3R,4S)-3-cyclopropyl-4-methyl-1-(6-(5-methylpyridin-3-yl)pyrazolo[1,5-a]pyrazin-4-yl)-2-oxopyrrolidine-3-carbonitrile] | 5 to 20 nM | 5000 to 10000 nM | > 100 nM | 1000 to 5000 nM | 100 to 1000 nM | 100 to 1000 nM | 100 to 1000 nM
C[C@@H]1CN(c2nc(-c3ccnc(F)c3)cn3nccc23)C(=O)[C@]1(C#N)C1CC1 [Example 237, (3R,4S)-3-cyclopropyl-1-(6-(2-fluoropyridin-4-yl)pyrazolo[1,5-a]pyrazin-4-yl)-4-methyl-2-oxopyrrolidine-3-carbonitrile trifluoroacetate] | 5 to 20 nM | 5000 to 10000 nM | 50 to 100 nM | 100 to 1000 nM | < 100 nM | 100 to 1000 nM | 100 to 1000 nM
Cc1ncc(-c2cn3nccc3c(N3C[C@@H](C)[C@@](C#N)(C4CC4)C3=O)n2)s1 [Example 239, (3R,4S)-3-cyclopropyl-4-methyl-1-(6-(2-methylthiazol-5-yl)pyrazolo[1,5-a]pyrazin-4-yl)-2-oxopyrrolidine-3-carbonitrile] | < 5 nM | 1000 to 5000 nM | 50 to 100 nM | 100 to 1000 nM | < 100 nM | < 100 nM | 100 to 1000 nM
COc1cncc(-c2cn3nccc3c(N3C[C@@H](C)[C@@](C#N)(C4CC4)C3=O)n2)c1 [Example 244, (3R,4S)-3-cyclopropyl-1-(6-(5-methoxypyridin-3-yl)pyrazolo[1,5-a]pyrazin-4-yl)-4-methyl-2-oxopyrrolidine-3-carbonitrile trifluoroacetate] | 5 to 20 nM | > 10000 nM | > 100 nM | 5000 to 10000 nM | 100 to 1000 nM | 100 to 1000 nM | 100 to 1000 nM
C[C@@H]1CN(c2nc(-c3ccc(=O)n(C)c3)cn3nccc23)C(=O)[C@]1(C#N)C1CC1 [Example 245, (3R,4S)-3-cyclopropyl-4-methyl-1-(6-(1-methyl-6-oxo-1,6-dihydropyridin-3-yl)pyrazolo[1,5-a]pyrazin-4-yl)-2-oxopyrrolidine-3-carbonitrile] | < 5 nM | 1000 to 5000 nM | 50 to 100 nM | 100 to 1000 nM | < 100 nM | < 100 nM | 100 to 1000 nM
C[C@@H]1CN(c2nc(-c3cnn(C4COC4)c3)cn3nccc23)C(=O)[C@]1(C#N)C1CC1 [Example 251, (3R,4S)-3-cyclopropyl-4-methyl-1-(6-(1-(oxetan-3-yl)-1H-pyrazol-4-yl)pyrazolo[1,5-a]pyrazin-4-yl)-2-oxopyrrolidine-3-carbonitrile] | < 5 nM | 100 to 1000 nM | 20 to 50 nM | 100 to 1000 nM | < 100 nM | < 100 nM | < 100 nM

Next, values leading:

IC50 [1] | IC50 [2] | IC50 [3] | IC50 [4] | IC50 [5] | IC50 [6] | IC50 [7] | SMILES
< 5 nM | 1000 to 5000 nM | > 100 nM | 1000 to 5000 nM | 100 to 1000 nM | < 100 nM | 100 to 1000 nM | C[C@@H]1CN(c2nc(-c3cnn(CC#N)c3)cn3ncc(F)c23)C(=O)[C@]1(C#N)C1CC1 [Example 220, (3R,4S)-1-(6-(1-(cyanomethyl)-1H-pyrazol-4-yl)-3-fluoropyrazolo[1,5-a]pyrazin-4-yl)-3-cyclopropyl-4-methyl-2-oxopyrrolidine-3-carbonitrile]
< 5 nM | 1000 to 5000 nM | > 100 nM | 1000 to 5000 nM | < 100 nM | < 100 nM | 100 to 1000 nM | C[C@@H]1CN(c2nc(-c3ccc4c(cnn4C)c3)cn3nccc23)C(=O)[C@]1(C#N)C1CC1 [Example 225, (3R,4S)-3-cyclopropyl-4-methyl-1-(6-(1-methyl-1H-indazol-5-yl)pyrazolo[1,5-a]pyrazin-4-yl)-2-oxopyrrolidine-3-carbonitrile trifluoroacetate]
< 5 nM | 1000 to 5000 nM | > 100 nM | 100 to 1000 nM | < 100 nM | < 100 nM | 100 to 1000 nM | CNC(=O)c1ccc(-c2cn3nccc3c(N3C[C@@H](C)[C@@](C#N)(C4CC4)C3=O)n2)cn1 [Example 227, 5-(4-((3R,4S)-3-cyano-3-cyclopropyl-4-methyl-2-oxopyrrolidin-1-yl)pyrazolo[1,5-a]pyrazin-6-yl)-N-methylpicolinamide trifluoroacetate]
< 5 nM | 1000 to 5000 nM | 50 to 100 nM | 100 to 1000 nM | < 100 nM | < 100 nM | 100 to 1000 nM | CC(=O)Nc1cc(-c2cn3nccc3c(N3C[C@@H](C)[C@@](C#N)(C4CC4)C3=O)n2)ccn1 [Example 228, N-(4-(4-((3R,4S)-3-cyano-3-cyclopropyl-4-methyl-2-oxopyrrolidin-1-yl)pyrazolo[1,5-a]pyrazin-6-yl)pyridin-2-yl)acetamide]
< 5 nM | 1000 to 5000 nM | 5 to 20 nM | 100 to 1000 nM | < 100 nM | < 100 nM | 100 to 1000 nM | C[C@@H]1CN(c2nc(-c3cnc4[nH]ccc4c3)cn3nccc23)C(=O)[C@]1(C#N)C1CC1 [Example 230, (3R,4S)-1-(6-(1H-pyrrolo[2,3-b]pyridin-5-yl)pyrazolo[1,5-a]pyrazin-4-yl)-3-cyclopropyl-4-methyl-2-oxopyrrolidine-3-carbonitrile]
